Values after ≈ are worked out from the molar mass of the structure shown. Where two headings read alike, the source gives them in different places. Numbered stars: 1 amine (or outer) side, 2 acyl side, 3 side chain; on linkers, the order of the positions; unused ones are H or OH. Bridge positions count the residues as written; N and C are the ends. Square brackets hold non-standard residues; d marks the D form. Peptide text beside a SMILES is read from it. * marks the point of attachment. Phe(3-CF3) = N[C@@H](Cc1cccc(C(F)(F)F)c1)C(=O)O; Piperazine(2S-CO,4-Me) = CN1CCN[C@H](C(=O)O)C1; Phe(3,5-Me2) = Cc1cc(C)cc(C[C@H](N)C(=O)O)c1; Phe(3-Me) = Cc1cccc(C[C@H](N)C(=O)O)c1; NH(4-Cl-2-F-phenyl) = Fc1cc(Cl)ccc1N*; Pro(4R-Me) = C[C@H]1CN[C@H](C(=O)O)C1; NH(4-Me-phenyl) = Cc1ccc(N*)cc1; aThr = C[C@H](O)[C@H](N)C(=O)O; Pip = O=C(O)[C@@H]1CCCCN1; CO = O=C([*:1])[*:2]
Key:
S. aureus ClpP (Sa-ClpP) = target: T1, S. aureus ClpP (Sa-ClpP) (Staphylococcus aureus, UniProt Q2G036); experiment: Casein-BODIPY digestion assay (ClpP activation); format: biochemical
T1 construct: made in house; host or cells: E. coli BL21 (DE3)
T1 sequence (Q2G036 whole entry): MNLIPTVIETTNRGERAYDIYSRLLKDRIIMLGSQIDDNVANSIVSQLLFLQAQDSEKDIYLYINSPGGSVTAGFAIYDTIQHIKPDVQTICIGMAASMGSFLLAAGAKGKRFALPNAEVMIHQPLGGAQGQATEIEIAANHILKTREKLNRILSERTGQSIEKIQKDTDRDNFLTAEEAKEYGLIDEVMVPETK

E. faecails = experiment: Minimal inhibitory concentration, microbroth dilution; format: cell-based; settings: Enterococcus faecalis
Procedure, shortened: (§1)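 Compound was diluted twofold in the appropriate broth. Bacterial suspension (approx. 10^5 cfu/mL) was then added in equal volume, giving a maximum test concentration of 200 μM. After aerobic overnight incubation at 37 °C, wells were inspected visually for growth.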

MRSA NRS70 = experiment: as above; format: cell-based; settings: Staphylococcus aureus
Procedure, shortened: as §1

S. aureus ATCC 29213 = experiment: as above; format: cell-based; settings: Staphylococcus aureus
Procedure, shortened: as §1

S. aureus USA 300 = experiment: as above; format: cell-based; settings: Staphylococcus aureus
Procedure, shortened: as §1

Plasma stability assay = format: in vitro ADME, mouse
Description: The plasma stability property of early drug discovery compounds can influence the in vivo efficacy of the test compounds/drugs. Human and/or mouse plasma degradation is determined using multiple time points to monitor the rate of disappearance of the parent compound during incubation.
Sample preparation for plasma stability was modified from Di et al. (2005) Int. J. Pharm. 297(1-2): 110-119. A set of incubation times of 0, 3, 24, and 48 hour were used. DMSO stock solutions of test compounds were prepared at 10 mM concentration. 1.8 μL of each test compound was each added directly to 1.8 mL of human/mouse plasma to get the final concentration of 10 μM. This compound/matrix was mixed and 70 μL was transferred to 8 time points plates (each in triplicate wells). For the Time 0 plate, 210 μL of cold acetonitrile with internal standard (4 μg/mL warfarin) was added to each well and no incubation needed. For other seven time points' plate, the plate was incubated at 37° C. for required time, followed by quenching of the reaction by adding 210 μL of cold acetonitrile with internal standard (4 μg/ml warfarin) to each well. All of the plates were sealed and mixed well at 600 rpm for 10 min and were centrifuged at 4000 rpm for 20 min. The supernatants (120 μL) were transferred to analytical plates for analysis by LCMS. Conditions for Waters ACQUITY-UPLC-MS-UV system was described separately. The plasma stability was evaluated via the half-life from least-squares fit of the multiple time points based on first-order kinetics.

[1] = read-out: Minimal Inhibitory Concentrations (μM) E. faecails, MIC
[2] = read-out: Minimal Inhibitory Concentrations (μM) MRSA NRS70, MIC
[3] = ATCC29213, read-out: Minimal Inhibitory Concentrations (μM) S. aureus ATCC 29213, MIC
[4] = USA300, read-out: Minimal Inhibitory Concentrations (μM) S. aureus USA 300, MIC
[5] = plasma stability half-life, mouse plasma, 37° C.
[6] = MIC, read-out: Minimal Inhibitory Concentrations (μM) E. faecails
[7] = MIC, read-out: Minimal Inhibitory Concentrations (μM) MRSA NRS70
[8] = ATCC29213, MIC, read-out: Minimal Inhibitory Concentrations (μM) S. aureus ATCC 29213
[9] = USA300, MIC, read-out: Minimal Inhibitory Concentrations (μM) S. aureus USA 300

Row | SMILES | EC50 (S. aureus ClpP (Sa-ClpP)) [nM] | MIC (E. faecails; [1]) [µM] | MIC (MRSA NRS70; [2]) [µM] | MIC (S. aureus ATCC 29213; [3]) [µM] | MIC (S. aureus USA 300; [4]) [µM] | Mouse (Plasma stability assay; [5]) [h] | MIC (E. faecails; [6]) [µM] | MIC (MRSA NRS70; [7]) [µM] | MIC (S. aureus ATCC 29213; [8]) [µM] | MIC (S. aureus USA 300; [9]) [µM] | Mouse (Plasma stability assay; mouse, 10 μM) [h] | Mouse (hr) (Plasma stability assay; [5])
1 | Cc1ccc(NC(=O)N[C@@H](Cc2cccc(C)c2)C(=O)N[C@H]2COC(=O)[C@@H]3C[C@@H](C)CN3C(=O)[C@H](C)NC(=O)[C@@H]3CN(C)CCN3C(=O)[C@@H]3CCCN3C2=O)cc1 [Compound 15, (S)-3-(M-TOLYL)-2-(3-(P-TOLYL)UREIDO)-N-((6AS,12S,15AS,17R,21S,23AS)-2,17,21-TRIMETHYL-6,11,15,20,23-PENTAOXOOCTADECAHYDRO-2H,6H,11H,15H-PYRAZINO[2,1-I]DIPYRROLO[2,1-C:2′,1′-L][1]OXA[4,7,10,13]TETRAAZACYCLOHEXADECIN-12-YL)PROPANAMIDE] ({NH(4-Me-phenyl)-CO}-[Phe(3-Me)]SP[Piperazine(2S-CO,4-Me)]A[Pro(4R-Me)]; ester 2-C) | 1580 ± 200 | 1.25 (≈ 0.984 µg/mL) | 2.5 (≈ 1.97 µg/mL) | 2.5 (≈ 1.97 µg/mL) | 5 (≈ 3.93 µg/mL) | 5.95 ± 0.6 | – | – | – | – | – | –
2 | Cc1cccc(C[C@H](NC(=O)Nc2ccc(Cl)cc2F)C(=O)N[C@H]2COC(=O)[C@@H]3C[C@@H](C)CN3C(=O)[C@H](C)NC(=O)[C@@H]3CCCCN3C(=O)[C@@H]3C[C@H](N)CN3C2=O)c1 [Compound 12, (S)—N-((2R,6S,8AS,14AS,16S,20S,23AS)-16-AMINO-2,6-DIMETHYL-5,8,14,19,23-PENTAOXOOCTADECAHYDRO-1H,5H,14H,19H-PYRIDO[2,1-I]DIPYRROLO[2,1-C:2′,1′-L][1]OXA[4,7,10,13]TETRAAZACYCLOHEXADECIN-20-YL)-2-(3-(4-CHLORO-2-FLUOROPHENYL)UREIDO)-3-(M-TOLYL)PROPANAMIDE] | 580 ± 20 | – | – | – | – | – | 1.25 (≈ 1.03 µg/mL) | 1.25 (≈ 1.03 µg/mL) | 1.25 (≈ 1.03 µg/mL) | 0.625 (≈ 0.516 µg/mL) | 18.63 | –
3 | C[C@@H]1C[C@H]2C(=O)OC[C@H](NC(=O)[C@H](Cc3cccc(C(F)(F)F)c3)NC(=O)Nc3ccc(Cl)cc3F)C(=O)N3CCC[C@H]3C(=O)N3CCN(C)C[C@H]3C(=O)N[C@@H](C)C(=O)N2C1 [Compound 18, (S)-2-(3-(4-CHLORO-2-FLUOROPHENYL)UREIDO)-3-(3-(TRIFLUOROMETHYL)PHENYL)-N-((6AS,12S,15AS,17R,21S,23AS)-2,17,21-TRIMETHYL-6,11,15,20,23-PENTAOXOOCTADECAHYDRO-2H,6H,11H,15H-PYRAZINO[2,1-I]DIPYRROLO[2,1-C:2′,1′-L][1]OXA[4,7,10,13]TETRAAZACYCLOHEXADECIN-12-YL)PROPANAMIDE] ({NH(4-Cl-2-F-phenyl)-CO}-[Phe(3-CF3)]SP[Piperazine(2S-CO,4-Me)]A[Pro(4R-Me)]; ester 2-C) | 1750 ± 100 | – | – | – | – | – | 0.313 (≈ 0.275 µg/mL) | 5 (≈ 4.4 µg/mL) | 10 (≈ 8.79 µg/mL) | 10 (≈ 8.79 µg/mL) | 66.31 | –
4 | Cc1ccc(NC(=O)N[C@@H](Cc2cc(C)cc(C)c2)C(=O)N[C@@H]2C(=O)N3CCC[C@H]3C(=O)N3CCCC[C@H]3C(=O)N[C@@H](C)C(=O)N3C[C@H](C)C[C@H]3C(=O)O[C@H]2C)cc1 [Compound 2, (S)-3-(3,5-DIMETHYLPHENYL)-2-(3-(P-TOLYL)UREIDO)-N-((2R,6S,8AS,14AS,20S,21S,23AS)-2,6,21-TRIMETHYL-5,8,14,19,23-PENTAOXOOCTADECAHYDRO-1H,5H,14H,19H-PYRIDO[2,1-I]DIPYRROLO[2,1-C:2′,1′-L][1]OXA[4,7,10,13]TETRAAZACYCLOHEXADECIN-20-YL)PROPANAMIDE] ({NH(4-Me-phenyl)-CO}-[Phe(3,5-Me2)][aThr]P[Pip]A[Pro(4R-Me)]; ester 2-C) | 870 ± 30 | 2.5 (≈ 2 µg/mL) | 0.313 (≈ 0.25 µg/mL) | 1.25 (≈ 1 µg/mL) | 0.781 (≈ 0.625 µg/mL) | – | – | – | – | – | – | >>48 hr

— patent US10570179B2, “Substituted urea depsipeptide analogs as activators of the CLPP endopeptidase” (priority 2016, dated 2020)
